Measurements: patent US20130197085A1, “AGENT AND METHOD FOR STABILIZING MEMBRANE PROTEIN” (priority 2007, published 2013)

What was measured:
wild-type BSEP [1] = molecular target: T1, wild-type BSEP (Homo sapiens, UniProt O95342, L339V); test: Transcellular transport assay of [^3H] TC across MDCKII monolayer; type: cell-based; conditions: other carboxylic acids, 1 mM, 24 hours; FIG. 10
T1 construct: expressed in transfected cells; host or cells: MDCKII cells infected with recombinant adenovirus
Experimental: MDCKII cells were dispersed on a Transwell membrane insert (pore size: […]; Falcon) of a 24-well plate, resulting in a density of 1.5×10^5 cells/insert. Two days after the culture, the confluent cells were infected with recombinant adenoviruses having the cDNAs of wild-type, E297G and D482G BSEPs, and GFP, at 50 MOI. […] After completion of the treatment for 24 hours, a transcellular transport assay was carried out (see Mita et al., Am J Physiol Gastrointest Liver Physiol 290: G550-G556, 2006).
The apparent efflux clearance across the apical membrane (PSapical) was calculated by dividing a steady rate of the transcellular transport of [^3H] TC for 2 hours by the intracellular concentration of the [^3H] TC at the termination of the experiment (2 hours later).

wild-type BSEP [2] = molecular target: T1, wild-type BSEP; test: Cell surface biotinylation method, expression on the surface of MDCKII cells; type: cell-based; conditions: 1 mM, 24 hours, FIG. 9 cell surface fraction
Experimental: MDCKII cells were dispersed on a 6-well plate, resulting in a density of 2.5×10^5 cells/well. After completion of the culture for 24 hours, the confluent cells were infected with recombinant adenoviruses having the cDNAs of wild-type, E297G and D482G BSEPs, and GFP, at 200 MOI. After completion of the infection, the cells were cultured for 24 hours. […] After completion of the treatment for 24 hours, the cells were biotinylated (see Hayashi et al., Hepatology, 41: 916-924, 2005).

T1 sequence (O95342 whole entry L339V): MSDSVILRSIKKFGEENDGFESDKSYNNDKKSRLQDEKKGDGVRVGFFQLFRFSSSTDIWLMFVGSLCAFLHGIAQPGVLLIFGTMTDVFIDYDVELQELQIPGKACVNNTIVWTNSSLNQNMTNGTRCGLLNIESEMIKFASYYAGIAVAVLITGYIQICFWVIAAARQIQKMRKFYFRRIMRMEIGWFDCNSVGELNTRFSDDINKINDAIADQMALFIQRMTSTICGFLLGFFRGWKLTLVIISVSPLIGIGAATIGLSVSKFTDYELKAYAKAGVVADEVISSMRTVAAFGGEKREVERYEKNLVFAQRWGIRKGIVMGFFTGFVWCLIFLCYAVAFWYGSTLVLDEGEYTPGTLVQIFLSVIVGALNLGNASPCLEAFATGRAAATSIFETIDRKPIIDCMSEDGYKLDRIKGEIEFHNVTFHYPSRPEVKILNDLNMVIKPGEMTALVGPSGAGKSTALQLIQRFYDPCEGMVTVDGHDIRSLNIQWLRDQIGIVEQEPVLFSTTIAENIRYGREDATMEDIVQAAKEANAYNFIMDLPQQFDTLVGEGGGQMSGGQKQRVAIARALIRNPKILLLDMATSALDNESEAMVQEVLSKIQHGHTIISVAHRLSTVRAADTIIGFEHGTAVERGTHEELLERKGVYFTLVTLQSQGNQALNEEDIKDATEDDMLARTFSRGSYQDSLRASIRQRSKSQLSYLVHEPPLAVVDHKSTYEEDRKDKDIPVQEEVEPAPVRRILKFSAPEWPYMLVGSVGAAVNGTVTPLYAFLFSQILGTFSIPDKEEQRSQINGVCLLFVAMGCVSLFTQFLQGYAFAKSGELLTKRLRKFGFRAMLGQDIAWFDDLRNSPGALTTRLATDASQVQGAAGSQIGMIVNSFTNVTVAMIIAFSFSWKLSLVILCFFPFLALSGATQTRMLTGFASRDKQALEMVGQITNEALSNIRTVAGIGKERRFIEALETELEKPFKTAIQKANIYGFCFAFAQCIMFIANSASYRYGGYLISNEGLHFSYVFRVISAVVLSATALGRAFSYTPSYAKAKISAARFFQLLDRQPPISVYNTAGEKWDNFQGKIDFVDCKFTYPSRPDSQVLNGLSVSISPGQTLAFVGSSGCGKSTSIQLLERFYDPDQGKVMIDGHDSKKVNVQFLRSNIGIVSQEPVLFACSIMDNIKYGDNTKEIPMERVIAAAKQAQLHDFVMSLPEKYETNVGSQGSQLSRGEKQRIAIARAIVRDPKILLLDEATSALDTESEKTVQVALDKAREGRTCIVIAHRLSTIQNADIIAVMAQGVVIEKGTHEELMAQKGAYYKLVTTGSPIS

| Structure (SMILES) | efflux of [^3H] TC from the base side to the apical side (in words) (wild-type BSEP [1]) | expression level of wild-type BSEP (wild-type BSEP [2]) |
| --- | --- | --- |
| CCCC(=O)O [butanoic acid] | increased |  |
| CCCCCCCCCC(=O)O [decanoic acid] | increased |  |
| CCCCCCCC(=O)O [octanoic acid] |  | an increase in the expression level was observed |
| CCC(=O)O [propionic acid] | increased |  |
